Measurements from PubChem BioAssay (NCI).
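These data come from cells grown in 96-well plates and exposed to compound for 48 hours at five concentrations. TGI denotes the concentration required for complete inhibition of growth.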

Columns and labels:
Assay in all cases: inhibition of tumour cell growth, NCI panel, 48 h
KM12 colon = tested on: KM12 colon
ACHN renal = tested on: ACHN renal
RXF 393 renal = tested on: RXF 393 renal
COLO 205 colon = tested on: COLO 205 colon
OVCAR-5 ovarian = tested on: OVCAR-5 ovarian
MDA-MB-231 breast = tested on: MDA-MB-231 breast
SF-268 CNS = tested on: SF-268 CNS
M14 melanoma = tested on: M14 melanoma
NCI-H522 lung = tested on: NCI-H522 lung
HT29 colon = tested on: HT29 colon
SK-MEL-5 melanoma = tested on: SK-MEL-5 melanoma
DU-145 prostate = tested on: DU-145 prostate
HS 578T breast = tested on: HS 578T breast
OVCAR-8 ovarian = tested on: OVCAR-8 ovarian
K-562 leukemia = tested on: K-562 leukemia
BT-549 breast = tested on: BT-549 breast
NCI-H23 lung = tested on: NCI-H23 lung
MOLT-4 leukemia = tested on: MOLT-4 leukemia
SK-MEL-2 melanoma = tested on: SK-MEL-2 melanoma
NCI-H226 lung = tested on: NCI-H226 lung
786-0 renal = tested on: 786-0 renal
OVCAR-4 ovarian = tested on: OVCAR-4 ovarian
UACC-257 melanoma = tested on: UACC-257 melanoma
U251 CNS = tested on: U251 CNS
SW-620 colon = tested on: SW-620 colon
A498 renal = tested on: A498 renal
EKVX NSCLC = tested on: EKVX NSCLC
OVCAR-3 ovarian = tested on: OVCAR-3 ovarian
SK-OV-3 ovarian = tested on: SK-OV-3 ovarian
PC-3 prostate = tested on: PC-3 prostate
HL-60(TB) leukemia = tested on: HL-60(TB) leukemia
SF-295 CNS = tested on: SF-295 CNS
A549 NSCLC = tested on: A549 NSCLC
IGROV1 ovarian = tested on: IGROV1 ovarian
HCT-116 colon = tested on: HCT-116 colon
SF-539 CNS = tested on: SF-539 CNS
T-47D breast = tested on: T-47D breast
HCC-2998 colon = tested on: HCC-2998 colon
CAKI-1 renal = tested on: CAKI-1 renal
SK-MEL-28 melanoma = tested on: SK-MEL-28 melanoma
LOX IMVI melanoma = tested on: LOX IMVI melanoma
MDA-N = tested on: MDA-N
MCF7 breast = tested on: MCF7 breast
TK-10 renal = tested on: TK-10 renal
MALME-3M melanoma = tested on: MALME-3M melanoma
NCI/ADR-RES ovarian = tested on: NCI/ADR-RES ovarian
HOP-62 NSCLC = tested on: HOP-62 NSCLC
SN12C renal = tested on: SN12C renal
CCRF-CEM leukemia = tested on: CCRF-CEM leukemia
HCT-15 colon = tested on: HCT-15 colon
NCI-H460 lung = tested on: NCI-H460 lung
SNB-19 CNS = tested on: SNB-19 CNS
MDA-MB-435 = tested on: MDA-MB-435
UACC-62 melanoma = tested on: UACC-62 melanoma
UO-31 renal = tested on: UO-31 renal
SNB-75 CNS = tested on: SNB-75 CNS
HOP-92 NSCLC = tested on: HOP-92 NSCLC
RPMI-8226 leukemia = tested on: RPMI-8226 leukemia

N/C(=N\N=C\c1cc(I)cc(I)c1O)NO
TGI (KM12 colon): > 100 µM
TGI (ACHN renal): 74.1 µM
TGI (RXF 393 renal): > 100 µM
TGI (COLO 205 colon): > 100 µM
TGI (OVCAR-5 ovarian): > 100 µM
TGI (MDA-MB-231 breast): > 100 µM
TGI (SF-268 CNS): > 100 µM
TGI (M14 melanoma): 44.2 µM
TGI (NCI-H522 lung): > 100 µM
TGI (HT29 colon): > 100 µM
TGI (SK-MEL-5 melanoma): > 100 µM
TGI (DU-145 prostate): > 100 µM
TGI (HS 578T breast): > 100 µM
TGI (OVCAR-8 ovarian): > 100 µM
TGI (K-562 leukemia): > 100 µM
TGI (BT-549 breast): > 100 µM
TGI (NCI-H23 lung): 79.3 µM
TGI (MOLT-4 leukemia): > 100 µM
TGI (SK-MEL-2 melanoma): > 100 µM
TGI (NCI-H226 lung): 44.5 µM
TGI (786-0 renal): > 100 µM
TGI (OVCAR-4 ovarian): > 100 µM
TGI (UACC-257 melanoma): > 100 µM
TGI (U251 CNS): > 100 µM
TGI (SW-620 colon): > 100 µM
TGI (A498 renal): > 100 µM
TGI (EKVX NSCLC): > 100 µM
TGI (OVCAR-3 ovarian): 14.6 µM
TGI (SK-OV-3 ovarian): > 100 µM
TGI (PC-3 prostate): > 100 µM
TGI (HL-60(TB) leukemia): 35.4 µM
TGI (SF-295 CNS): > 100 µM
TGI (A549 NSCLC): > 100 µM
TGI (IGROV1 ovarian): > 100 µM
TGI (HCT-116 colon): 76.2 µM
TGI (SF-539 CNS): 75.6 µM
TGI (T-47D breast): > 100 µM
TGI (HCC-2998 colon): > 100 µM
TGI (CAKI-1 renal): > 100 µM
TGI (SK-MEL-28 melanoma): > 100 µM
TGI (LOX IMVI melanoma): > 100 µM
TGI (MDA-N): > 100 µM
TGI (MCF7 breast): 74.7 µM
TGI (TK-10 renal): > 100 µM
TGI (MALME-3M melanoma): 56.7 µM
TGI (NCI/ADR-RES ovarian): 8.41 µM
TGI (HOP-62 NSCLC): > 100 µM
TGI (SN12C renal): > 100 µM
TGI (CCRF-CEM leukemia): 52.4 µM
TGI (HCT-15 colon): > 100 µM
TGI (NCI-H460 lung): > 100 µM
TGI (SNB-19 CNS): > 100 µM
TGI (MDA-MB-435): > 100 µM
TGI (UACC-62 melanoma): 95.5 µM

C[N+]12CCN(c3ccccc31)c1ccccc12
TGI (KM12 colon): > 10 µM
TGI (ACHN renal): > 10 µM
TGI (RXF 393 renal): > 10 µM
TGI (COLO 205 colon): > 10 µM
TGI (OVCAR-5 ovarian): > 10 µM
TGI (MDA-MB-231 breast): > 10 µM
TGI (SF-268 CNS): > 10 µM
TGI (M14 melanoma): > 10 µM
TGI (HT29 colon): > 10 µM
TGI (SK-MEL-5 melanoma): 5.42 µM
TGI (UO-31 renal): > 10 µM
TGI (DU-145 prostate): > 10 µM
TGI (OVCAR-8 ovarian): > 10 µM
TGI (NCI-H23 lung): > 10 µM
TGI (OVCAR-4 ovarian): > 10 µM
TGI (U251 CNS): > 10 µM
TGI (SW-620 colon): > 10 µM
TGI (A498 renal): > 10 µM
TGI (EKVX NSCLC): > 10 µM
TGI (OVCAR-3 ovarian): > 10 µM
TGI (PC-3 prostate): > 10 µM
TGI (SF-295 CNS): > 10 µM
TGI (A549 NSCLC): > 10 µM
TGI (IGROV1 ovarian): > 10 µM
TGI (CAKI-1 renal): > 10 µM
TGI (SK-MEL-28 melanoma): > 10 µM
TGI (SNB-75 CNS): > 10 µM
TGI (MDA-N): 8.56 µM
TGI (TK-10 renal): > 10 µM
TGI (NCI/ADR-RES ovarian): > 10 µM
TGI (SN12C renal): > 10 µM
TGI (HCT-15 colon): > 10 µM
TGI (SNB-19 CNS): > 10 µM
TGI (MDA-MB-435): > 10 µM
TGI (HOP-92 NSCLC): > 10 µM

O=C(/C=C1\N=C(c2ccccc2)N(c2nc3c(Cl)cc(Cl)cc3s2)C1=O)/C=C/c1ccccc1
TGI (KM12 colon): > 100 µM
TGI (ACHN renal): > 100 µM
TGI (RXF 393 renal): > 100 µM
TGI (COLO 205 colon): > 100 µM
TGI (OVCAR-5 ovarian): > 100 µM
TGI (MDA-MB-231 breast): > 100 µM
TGI (SF-268 CNS): > 100 µM
TGI (M14 melanoma): > 100 µM
TGI (NCI-H522 lung): > 100 µM
TGI (HT29 colon): > 100 µM
TGI (SK-MEL-5 melanoma): > 100 µM
TGI (UO-31 renal): > 100 µM
TGI (DU-145 prostate): > 100 µM
TGI (HS 578T breast): > 100 µM
TGI (OVCAR-8 ovarian): > 100 µM
TGI (K-562 leukemia): > 100 µM
TGI (BT-549 breast): > 100 µM
TGI (NCI-H23 lung): > 100 µM
TGI (MOLT-4 leukemia): > 100 µM
TGI (SK-MEL-2 melanoma): > 100 µM
TGI (786-0 renal): > 100 µM
TGI (OVCAR-4 ovarian): > 100 µM
TGI (UACC-257 melanoma): > 100 µM
TGI (U251 CNS): > 100 µM
TGI (SW-620 colon): > 100 µM
TGI (A498 renal): > 100 µM
TGI (EKVX NSCLC): > 100 µM
TGI (OVCAR-3 ovarian): > 100 µM
TGI (SK-OV-3 ovarian): > 100 µM
TGI (PC-3 prostate): > 100 µM
TGI (HL-60(TB) leukemia): > 100 µM
TGI (SF-295 CNS): > 100 µM
TGI (A549 NSCLC): > 100 µM
TGI (IGROV1 ovarian): > 100 µM
TGI (RPMI-8226 leukemia): > 100 µM
TGI (HCT-116 colon): > 100 µM
TGI (T-47D breast): > 100 µM
TGI (HCC-2998 colon): > 100 µM
TGI (CAKI-1 renal): > 100 µM
TGI (SK-MEL-28 melanoma): > 100 µM
TGI (LOX IMVI melanoma): > 100 µM
TGI (SNB-75 CNS): > 100 µM
TGI (MDA-N): > 100 µM
TGI (MCF7 breast): > 100 µM
TGI (TK-10 renal): > 100 µM
TGI (MALME-3M melanoma): > 100 µM
TGI (NCI/ADR-RES ovarian): > 100 µM
TGI (HOP-62 NSCLC): > 100 µM
TGI (SN12C renal): > 100 µM
TGI (CCRF-CEM leukemia): > 100 µM
TGI (HCT-15 colon): > 100 µM
TGI (NCI-H460 lung): > 100 µM
TGI (SNB-19 CNS): > 100 µM
TGI (MDA-MB-435): > 100 µM
TGI (HOP-92 NSCLC): > 100 µM
TGI (UACC-62 melanoma): > 100 µM

Cc1cc(S(=O)(=O)NC2=NCCN2Cc2ccccc2)c(S)cc1Cl
TGI (KM12 colon): > 100 µM
TGI (ACHN renal): > 100 µM
TGI (COLO 205 colon): > 100 µM
TGI (OVCAR-5 ovarian): > 100 µM
TGI (MDA-MB-231 breast): > 100 µM
TGI (SF-268 CNS): > 100 µM
TGI (M14 melanoma): > 100 µM
TGI (NCI-H522 lung): > 100 µM
TGI (HT29 colon): > 100 µM
TGI (SK-MEL-5 melanoma): > 100 µM
TGI (DU-145 prostate): > 100 µM
TGI (OVCAR-8 ovarian): > 100 µM
TGI (K-562 leukemia): > 100 µM
TGI (BT-549 breast): > 100 µM
TGI (NCI-H23 lung): > 100 µM
TGI (MOLT-4 leukemia): > 100 µM
TGI (SK-MEL-2 melanoma): > 100 µM
TGI (NCI-H226 lung): > 100 µM
TGI (786-0 renal): > 100 µM
TGI (OVCAR-4 ovarian): > 100 µM
TGI (UACC-257 melanoma): > 100 µM
TGI (U251 CNS): > 100 µM
TGI (SW-620 colon): > 100 µM
TGI (EKVX NSCLC): > 100 µM
TGI (OVCAR-3 ovarian): > 100 µM
TGI (SK-OV-3 ovarian): > 100 µM
TGI (PC-3 prostate): > 100 µM
TGI (HL-60(TB) leukemia): > 100 µM
TGI (SF-295 CNS): > 100 µM
TGI (A549 NSCLC): > 100 µM
TGI (IGROV1 ovarian): > 100 µM
TGI (RPMI-8226 leukemia): > 100 µM
TGI (HCT-116 colon): > 100 µM
TGI (SF-539 CNS): > 100 µM
TGI (HCC-2998 colon): > 100 µM
TGI (CAKI-1 renal): > 100 µM
TGI (SK-MEL-28 melanoma): > 100 µM
TGI (LOX IMVI melanoma): > 100 µM
TGI (SNB-75 CNS): > 100 µM
TGI (MDA-N): > 100 µM
TGI (MCF7 breast): > 100 µM
TGI (TK-10 renal): > 100 µM
TGI (MALME-3M melanoma): > 100 µM
TGI (NCI/ADR-RES ovarian): > 100 µM
TGI (HOP-62 NSCLC): > 100 µM
TGI (SN12C renal): > 100 µM
TGI (CCRF-CEM leukemia): > 100 µM
TGI (HCT-15 colon): > 100 µM
TGI (NCI-H460 lung): > 100 µM
TGI (SNB-19 CNS): > 100 µM
TGI (MDA-MB-435): > 100 µM
TGI (UACC-62 melanoma): > 100 µM
